Source: patent US20190307843A1, “SINGLE DOSE METHODS FOR PREVENTING AND TREATING FUNGAL INFECTIONS” (Cidara Therapeutics, Inc., priority 2016, published 2019)
Read-outs that look alike come from different tables or passages of the source. Starred links: 1 amine or outer side, 2 acyl side, 3 side chain; linkers in the order of their positions; H or OH if unused. Positions of bridges follow the written chain, without caps; N, C: chain ends. Non-standard residues stand in square brackets, D forms with d. Residues, ends and D or L forms follow the SMILES beside them. *: point of attachment. Orn(4R-OH,5R-OCH2CH2NMe3+) = C[N+](C)(C)CCO[C@@H](N[*:3])[C@H](O)C[C@H](N[*:1])C(=O)[*:2]; pTerphenylCO(4''-OnC5H11) = CCCCCOc1ccc(-c2ccc(-c3ccc(C(=O)*)cc3)cc2)cc1; hTyr(3S-OH,4S-OH) = N[C@H](C(=O)O)[C@H](O)[C@@H](O)c1ccc(O)cc1; Pro(3S-OH,4S-Me) = C[C@H]1CN[C@H](C(=O)O)[C@H]1O; Hyp = O=C(O)[C@@H]1C[C@@H](O)CN1

What was measured:
C. parapsilosis = experiment: Neutropenic murine disseminated candidiasis model, PK/PD targets, C. parapsilosis
[1] = In vivo tissue distribution in SD rats after 5 mg/kg IV; conditions: Sprague-Dawley, rat
Description: (§1) The in vitro activity of CD101 was evaluated against 153 A. fumigatus clinical isolates collected as part of the 2014 and 2015 JMI international SENTRY surveillance program. Susceptibility was determined by measuring the minimal effective concentration (MEC) values in accordance with CLSI broth microdilution guidelines (M38-A2). In vivo tissue distribution of CD101 in SD rats (N=3/time up to 5 d) after a 5 mg/kg IV CD101 dose. Plasma/tissue concentrations were measured by LC-MS/MS.

[2] = system: Aspergillus fumigatus (ATCC 13073); experiment: Neutropenic mouse aspergillosis model, survival; format: in vivo; conditions: CD101 2 mg/kg IV or IP one dose; 10 days
[3] = Pharmacokinetics in healthy human adults (Phase 1); format: in vivo; conditions: for AUC: human, plasma, free drug, read-out: average 24 h AUC over a 7 day period
Source text: (§2) The in vitro activity of CD101 was previously evaluated as part of the SENTRY international surveillance program using CLSI broth microdilution methodology (M38-A2, M27-A3; Pfaller, et al 2017). […] These susceptibility data were then compared graphically to CD101 plasma concentrations from studies in healthy adults, adjusted for plasma protein binding. Nonclinical efficacy in a murine model of Pneumocystis pneumonia were also considered to evaluate CD101 doses for clinical investigation of antifungal prophylaxis.

[4] = system: Candida albicans ATCC SC5314; experiment: MIC used for free drug plasma concentration over MIC, candidiasis model; format: cell-based
[5] = system: Candida albicans ATCC SC5314; experiment: Prophylaxis, neutropenic ICR mouse candidiasis model, kidney CFU; conditions: for clearance of kidney CFU: 24 hours post-challenge
[6] = system: Candida albicans clinical isolates; conditions: SENTRY, Pfaller, et al 2017; cited from earlier work
Pneumocystis spp. = experiment: Murine model of Pneumocystis pneumonia; conditions: in vivo
Source text: as §2

C. albicans = experiment: In vitro susceptibility testing (CLSI M27-A3), C. albicans; format: cell-based; conditions: Candida albicans, 24 h
Description: Ten clinical Candida strains were used for the in vivo treatment studies, including four C. albicans, three C. glabrata, and three C. parapsilosis strains (Table 15). This group was selected to encompass phenotypic variability in susceptibility to triazoles and echinocandins and based on similar fitness in the animal model as defined by the amount of growth in control animals over 24 h. The organisms were maintained, grown, and quantified on Sabouraud's dextrose agar (SDA) plates.
In vitro susceptibility testing. All isolates were tested in accordance with the standards in CLSI document M27-A3. The MICs were determined visually after 24 h of incubation as the lowest concentration of drug that causes a significant diminution (50%) of growth compared to controls. MICs were determined on three separate occasions in duplicate.

candidemia = experiment: Human subject with candidemia, single intravenous dose (Example 2); format: in vivo; conditions: single dose of 50-800 mg acetate salt of CD101, intravenous infusion
Description: A human subject is diagnosed with candidemia using standard diagnostic procedures. The subject receives treatment with a single dose of 50-800 mg (e.g., 75±25 mg, 100±25 mg, 150±50 mg, 200±50 mg, 250±50 mg, 300±50 mg, 350±50 mg, 400±50 mg, 450±50 mg, 500±100 mg, 600±100 mg, 700±100 mg, 800±100 mg, 900±50 mg, 1000 mg±100 mg, or 1100±100 mg) of the acetate salt of CD101 administered by intravenous infusion. No other antifungal treatment is provided to the subject within one to three weeks before or after administration of the single dose CD101 treatment.

[7] = system: A. fumigatus clinical isolates; conditions: Aspergillus fumigatus clinical isolates; SENTRY, Pfaller, et al 2017; cited from earlier work
[8] = system: A. fumigatus clinical isolates; experiment: CLSI broth microdilution (M38-A2) MEC, SENTRY clinical isolates; format: cell-based, Aspergillus fumigatus; conditions: 153 A. fumigatus clinical isolates, 2014 and 2015
Source text: as §2, §1

**Q.** Which “median stasis 24 h free drug AUC/MIC target” value (C. parapsilosis; C. parapsilosis) does the source give for `CCCCCOc1ccc(-c2ccc(-c3ccc(C(=O)N[C@H]4C[C@@H](O)[C@@H](OCC[N+](C)(C)C)NC(=O)[C@@H]5[C@@H](O)[C@@H](C)CN5C(=O)[C@H]([C@@H](C)O)NC(=O)[C@H]([C@H](O)[C@@H](O)c5ccc(O)cc5)NC(=O)[C@@H]5C[C@@H](O)CN5C(=O)[C@H]([C@@H](C)O)NC4=O)cc3)cc2)cc1` [CD101] ({pTerphenylCO(4''-OnC5H11)}-[Orn(4R-OH,5R-OCH2CH2NMe3+)]T[Hyp][hTyr(3S-OH,4S-OH)]T[Pro(3S-OH,4S-Me)]; lactam 1-C) here?
**A.** 2.61

**Q.** And the “Stasis 24 h Ave free drug AUC/MIC” value (C. parapsilosis; C. parapsilosis 20423.072)?
**A.** 1.39

**Q.** What about the “Stasis free drug AUC0-168h/MIC” value (C. parapsilosis; C. parapsilosis 20423.072) of the same compound?
**A.** 9.74

**Q.** And the “Stasis total drug AUC0-168h/MIC” value (C. parapsilosis; C. parapsilosis 20423.072)?
**A.** 1217.49

**Q.** And the Static dose (C. parapsilosis; C. parapsilosis 20423.072)?
**A.** 9.62 mg/kg

**Q.** What about the “Stasis 24 h Ave free drug AUC/MIC” value (C. parapsilosis; C. parapsilosis 20477.048) of the same compound?
**A.** 3.82

**Q.** And the “Stasis free drug AUC0-168h/MIC” value (C. parapsilosis; C. parapsilosis 20477.048)?
**A.** 26.72

**Q.** What about the “Stasis total drug AUC0-168h/MIC” value (C. parapsilosis; C. parapsilosis 20477.048) of the same compound?
**A.** 3339.42

**Q.** And the Static dose (C. parapsilosis; C. parapsilosis 20477.048)?
**A.** 52.96 mg/kg

**Q.** And the “median stasis free drug AUC0-168/MIC target” value (C. parapsilosis; C. parapsilosis (only two strains achieved the endpoint))?
**A.** 18.2

**Q.** What about the Kp ([1]; liver, kidney, lung, spleen, read-out: tissue/plasma exposure ratios) of the same compound?
**A.** ~4

**Q.** What about the half-life ([1]; plasma, read-out: t1/2 in plasma (converted)) of the same compound?
**A.** 39 h

**Q.** What about the half-life ([1]; tissues (all tissues studied), read-out: t1/2 in all tissues studied) of the same compound?
**A.** 40 to 77 h

**Q.** And the survival vs vehicle [2]?
**A.** significantly longer survival than vehicle

**Q.** What about the “free drug AUC0-168” value ([3]; 200 mg dose) of the same compound?
**A.** 15400 ng·h/mL

**Q.** And the “free drug AUC0-168” value ([3]; 400 mg dose)?
**A.** 30200 ng·h/mL

**Q.** What about the “time plasma concentrations above the MEC90 for A. fumigatus” value ([3]; both 400 mg and 200 mg) of the same compound?
**A.** 7 days

**Q.** And the AUC ([3]; 200 mg dose)?
**A.** ~2200 ng·h/mL

**Q.** And the AUC ([3]; 400 mg dose)?
**A.** ~4300 ng·h/mL

**Q.** And the “mean unbound plasma concentrations relative to MIC90 for C. albicans” value ([3]; single dose of 400 mg, Phase 1 subjects)?
**A.** above the MIC90 for C. albicans for seven days

**Q.** And the MIC [4]?
**A.** 0.03 µg/mL

**Q.** What about the “clearance of kidney CFU” value ([5]; CD101 SC 10 mg/kg at Day −3 and Day −1) of the same compound?
**A.** Complete clearance was observed in all animals

**Q.** And the “clearance of kidney CFU” value ([5]; CD101 SC 20 mg/kg on Day −3)?
**A.** all but one animal

**Q.** And the “kidney CFU burden” value ([5]; CD101 SC 20 mg/kg, Day −5, −3 or −1)?
**A.** reduced CFU burden regardless of prophylactic treatment day

**Q.** And the “kidney CFU” value ([5]; CD101 SC 5 or 10 mg/kg at Day −3 and Day −1)?
**A.** significant decrease in CFU

**Q.** What about the MIC90 [6] of the same compound?
**A.** 0.06 µg/mL

**Q.** What about the “human equivalent doses at which Pneumocystis pneumonia was prevented in mice” value (Pneumocystis spp.) of the same compound?
**A.** < 50 mg

**Q.** And the MIC (C. albicans; C. albicans 98-17)?
**A.** 0.06 µg/mL

**Q.** What about the MIC (C. albicans; C. albicans 98-210) of the same compound?
**A.** 0.03 µg/mL

**Q.** And the MIC (C. albicans; C. albicans 580)?
**A.** 0.06 µg/mL

**Q.** What about the MIC (C. albicans; C. albicans K-1, 50% growth diminution) of the same compound?
**A.** 0.06 µg/mL

**Q.** And the “candidemia infection at follow-up visit” value (candidemia)?
**A.** confirmed to be resolved

**Q.** And the MEC90 [7]?
**A.** 0.015 µg/mL

**Q.** What about the MEC50 [8] of the same compound?
**A.** 0.015 µg/mL

**Q.** And the MEC90 [8]?
**A.** 0.015 µg/mL

**Q.** And the MEC range [8]?
**A.** ≤0.0078 to 0.03 µg/mL
